In US9187472B2 (AbbVie Inc., priority 2012, dated 2015) one finds IC50 data, which are given here for 20 molecules.

Assay [1] deals with NAMPT (human, recombinant, C-terminally His-tagged) (Homo sapiens, UniProt P43490). Nature of the assay: Time-Resolved Fluorescence Resonance Energy Transfer (TR-FRET) Binding Assay of NAMPT. The following applies: without substrates; 6.8 nM NAMPT, 200 nM probe, 3 hours equilibration. A digest of the protocol:
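Read-out is the time-resolved FRET ratio Em520/Em495 (excitation 337 nm) between a terbium anti-His antibody (1 nM) on the enzyme and an Oregon Green 488-labelled nicotinamide-competitive inhibitor probe (200 nM). Enzyme was 6.8 nM, DMSO 2%, pH 7.5 HEPES buffer; 3 h room-temperature equilibration preceded reading.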

For the next assay, the target named is NAMPT (Homo sapiens, UniProt P43490). Briefly: TR-FRET Binding Assay of NAMPT with PRPP. As to conditions: with 200 μM PRPP and 2.5 mM ATP; 2 nM NAMPT, 2 nM probe, 16 hours equilibration. A digest of the protocol:
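NAMPT 2 nM + probe 2 nM + Tb-anti-His Ab 1 nM; PRPP 200 μM, ATP 2.5 mM, DMSO 2%; 16 h equilibration before TR-FRET read.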
A general note: In TR-FRET formats the signal depends on donor and acceptor labels being close together.

The next assay concerns PC3 cells. Briefly: NAMPT Cell Proliferation Assay. It counts as cell-based. The following applies: Homo sapiens, PC-3, 120 h, 5 days incubation, cell viability by Cell Titer Glo. A digest of the protocol:
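Proliferation of PC3 cells treated 5 days with a 10-fold compound series (top 10 μM) was quantified by Cell Titer Glo luminescence; IC50s were fitted from percent inhibition.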

Molecules are shown by their SMILES.

Sequence of NAMPT (human, recombinant, C-terminally His-tagged) (P43490 whole entry): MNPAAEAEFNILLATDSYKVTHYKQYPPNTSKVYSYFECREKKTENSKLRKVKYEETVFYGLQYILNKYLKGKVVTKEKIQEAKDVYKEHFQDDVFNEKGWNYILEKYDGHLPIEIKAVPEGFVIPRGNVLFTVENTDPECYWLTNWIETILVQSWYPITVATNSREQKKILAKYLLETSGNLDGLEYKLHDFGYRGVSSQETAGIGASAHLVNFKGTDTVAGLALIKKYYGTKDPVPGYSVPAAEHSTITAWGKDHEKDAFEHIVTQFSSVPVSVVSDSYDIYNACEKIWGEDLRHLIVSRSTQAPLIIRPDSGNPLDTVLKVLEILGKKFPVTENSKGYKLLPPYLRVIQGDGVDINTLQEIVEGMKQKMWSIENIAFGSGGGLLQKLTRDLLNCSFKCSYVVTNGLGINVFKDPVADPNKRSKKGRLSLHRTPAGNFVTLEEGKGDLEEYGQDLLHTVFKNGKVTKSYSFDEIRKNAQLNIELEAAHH
Sequence of NAMPT (P43490 whole entry): as above

The IC50 is the concentration that inhibits the measured activity by half. Consider `O=C(NCc1ccn2ccnc2c1)Nc1ccc(-c2cnn(CC3CCOCC3)c2)cc1` [Example 675, 1-(imidazo[1,2-a]pyridin-7-ylmethyl)-3-{4-[1-(tetrahydro-2H-pyran-4-ylmethyl)-1H-pyrazol-4-yl]phenyl}urea], for which the concentration for half-maximal inhibition (IC50) in assay [1] came out at 376 nM; at NAMPT, 2.07 nM; in the assay on PC3 cells, 69.8 nM.

Take `O=C(NCc1ccn2ccnc2c1)c1ccc(O[C@H]2CCN(C(=O)CC3CCOCC3)C2)cc1` [Example 343, N-(imidazo[1,2-a]pyridin-7-ylmethyl)-4-{[(3S)-1-(tetrahydro-2H-pyran-4-ylacetyl)pyrrolidin-3-yl]oxy}benzamide]: the IC50 is more than 10000 nM in assay [1], 0.456 nM on NAMPT and 6530 nM with PC3 cells.

For the molecule `Cc1ccccc1C(=O)N1CCC(c2ccc(C(=O)NCc3ccn4ccnc4c3)cc2)C1` (stereo not drawn) [Example 595, N-(imidazo[1,2-a]pyridin-7-ylmethyl)-4-[1-(2-methylbenzoyl)pyrrolidin-3-yl]benzamide], the concentration for half-maximal inhibition (IC50) stood at 133 nM in assay [1], 0.746 nM on NAMPT and 6.93 nM in the assay with PC3 cells.

On to `O=C(Nc1ccc(C2=CCN(C(=O)C3CCOCC3)CC2)cc1)Nc1ccc2nccn2c1` [Example 34, 1-imidazo[1,2-a]pyridin-6-yl-3-{4-[1-(tetrahydro-2H-pyran-4-ylcarbonyl)-1,2,3,6-tetrahydropyridin-4-yl]phenyl}urea], for which the concentration for half-maximal inhibition (IC50) in assay [1] worked out at 208 nM; on NAMPT it was 0.377 nM; in the assay with PC3 cells it was 38.3 nM.

As to `O=C(NCc1ccn2ccnc2c1)c1ccc(C2CCN(C(=O)C3CCOC3)CC2)cc1` (stereo not drawn) [Example 231, N-(imidazo[1,2-a]pyridin-7-ylmethyl)-4-[1-(tetrahydrofuran-3-ylcarbonyl)piperidin-4-yl]benzamide], the 50% inhibitory concentration (IC50) in assay [1] came out at 817 nM; at NAMPT it was 0.546 nM; in the assay with PC3 cells, 35.1 nM.

`O=C(NCc1ccn2ccnc2c1)c1ccc(C2CCN(C(=O)c3ccc(F)cc3)C2)s1` (stereo not drawn) [Example 763, 5-[1-(4-fluorobenzoyl)pyrrolidin-3-yl]-N-(imidazo[1,2-a]pyridin-7-ylmethyl)thiophene-2-carboxamide]: the half-maximal inhibitory concentration (IC50) in assay [1] was found to be 48.5 nM; at NAMPT, 0.478 nM; in the assay on PC3 cells, 2.31 nM.

For `CC(C)C(=O)n1cc(-c2ccc(C(=O)NCc3ccc4nccn4c3)s2)cn1` [Example 175, N-(imidazo[1,2-a]pyridin-6-ylmethyl)-5-[1-(2-methylpropanoyl)-1H-pyrazol-4-yl]thiophene-2-carboxamide], the IC50 came out at 697 nM in assay [1], 0.9 nM on NAMPT and 313 nM with PC3 cells.

Consider `CC(C)CS(=O)(=O)N1CCC(c2ccc(C(=O)NCc3ccn4ccnc4c3)s2)CC1` [Example 573, N-(imidazo[1,2-a]pyridin-7-ylmethyl)-5-{1-[(2-methylpropyl)sulfonyl]piperidin-4-yl}thiophene-2-carboxamide], for which the IC50 came to 24.2 nM in assay [1], 0.403 nM at NAMPT and 3.72 nM with PC3 cells.

Consider `O=C(NCc1ccn2ccnc2c1)c1cnc(C2CCN(C(=O)c3ccccc3F)C2)s1` (stereo not drawn) [Example 804, 2-[1-(2-fluorobenzoyl)pyrrolidin-3-yl]-N-(imidazo[1,2-a]pyridin-7-ylmethyl)-1,3-thiazole-5-carboxamide], for which the IC50 in assay [1] was determined as 289 nM; at NAMPT, 0.445 nM; with PC3 cells, 49.7 nM.

In the case of `CC(C)C(=O)NC1(c2ccc(C(=O)NCc3ccn4ccnc4c3)s2)CCC1` [Example 468, N-(imidazo[1,2-a]pyridin-7-ylmethyl)-5-{1-[(2-methylpropanoyl)amino]cyclobutyl}thiophene-2-carboxamide], the values for the half-inhibitory concentration (IC50) (in assay [1]; at NAMPT; in the assay on PC3 cells) were more than 10000 nM, 0.985 nM and 2930 nM, respectively.

With `O=C(NCc1ccn2ccnc2c1)Nc1ccc(C2CN(C(=O)CC3CCOCC3)C2)cc1` [Example 461, 1-(imidazo[1,2-a]pyridin-7-ylmethyl)-3-{4-[1-(tetrahydro-2H-pyran-4-ylacetyl)azetidin-3-yl]phenyl}urea], the half-inhibitory concentration (IC50) was 459 nM in assay [1], 0.169 nM on NAMPT and 31.4 nM with PC3 cells.

`O=C(NCc1ccn2ccnc2c1)Nc1ccc(O[C@@H]2CCN(C(=O)c3ccc(C(F)(F)F)cc3)C2)cc1` [Example 693, 1-(imidazo[1,2-a]pyridin-7-ylmethyl)-3-[4-({(3R)-1-[4-(trifluoromethyl)benzoyl]pyrrolidin-3-yl}oxy)phenyl]urea]: the figures for the IC50 (in assay [1]; at NAMPT; with PC3 cells) were 781 nM, 1.42 nM and 652 nM, respectively.

In the case of `O=C(NCc1ccn2ccnc2c1)c1ccc(C2CCN(C(=O)c3cncs3)C2)cc1` (stereo not drawn) [Example 586, N-(imidazo[1,2-a]pyridin-7-ylmethyl)-4-[1-(1,3-thiazol-5-ylcarbonyl)pyrrolidin-3-yl]benzamide], the IC50 in assay [1] amounted to 842 nM; on NAMPT, 1.09 nM; in the assay with PC3 cells it was 301 nM.

In the case of `COCCC(=O)N(Cc1ccc(C#N)cc1)c1ccc(C(=O)NCc2ccc3nccn3c2)cc1` [Example 240, 4-[(4-cyanobenzyl)(3-methoxypropanoyl)amino]-N-(imidazo[1,2-a]pyridin-6-ylmethyl)benzamide], the values for the IC50 (in assay [1]; on NAMPT; with PC3 cells) were 7350 nM, 8.75 nM and 651 nM, respectively.

Take `O=C(NCc1cn2ccnc2cn1)c1ccc(C2CCN(C(=O)CC(F)(F)F)CC2)cc1` [Example 815, N-(imidazo[1,2-a]pyrazin-6-ylmethyl)-4-[1-(3,3,3-trifluoropropanoyl)piperidin-4-yl]benzamide]: the concentration for half-maximal inhibition (IC50) was determined as 53 nM in assay [1], 1.93 nM on NAMPT and 5.89 nM in the assay with PC3 cells.

As for `CC[C@H](C)C(=O)N1CC[C@H](Oc2ccc(C(=O)NCc3ccn4ccnc4c3)cc2)C1` [Example 321, N-(imidazo[1,2-a]pyridin-7-ylmethyl)-4-({(3S)-1-[(2S)-2-methylbutanoyl]pyrrolidin-3-yl}oxy)benzamide], the figures for the IC50 (in assay [1]; at NAMPT; in the assay on PC3 cells) were 3160 nM, 0.792 nM and 1130 nM, respectively.

With `O=C(Nc1ccc(C2CCN(C(=O)CC3CCCO3)CC2)cc1)Nc1ccc2nccn2c1` (stereo not drawn) [Example 111, 1-imidazo[1,2-a]pyridin-6-yl-3-{4-[1-(tetrahydrofuran-2-ylacetyl)piperidin-4-yl]phenyl}urea], the values for the half-maximal inhibitory concentration (IC50) (in assay [1]; at NAMPT; with PC3 cells) were 263 nM, 0.209 nM and 75.5 nM, respectively.

On to `CC(C)C(=O)N1CCC(c2ccc(C(=O)NCc3ccn4ccnc4c3)s2)CC1` [Example 259, N-(imidazo[1,2-a]pyridin-7-ylmethyl)-5-[1-(2-methylpropanoyl)piperidin-4-yl]thiophene-2-carboxamide], for which the half-inhibitory concentration (IC50) in assay [1] was 26.6 nM; at NAMPT it was 0.169 nM; in the assay with PC3 cells, 2.54 nM.

On to `O=C(NCc1ccn2ccnc2c1)c1cnc(N2CC(COCc3ccccc3)OC2=O)s1` (stereo not drawn) [Example 218, 2-{5-[(benzyloxy)methyl]-2-oxo-1,3-oxazolidin-3-yl}-N-(imidazo[1,2-a]pyridin-7-ylmethyl)-1,3-thiazole-5-carboxamide], for which the results for the IC50 (in assay [1]; on NAMPT; with PC3 cells) were 123 nM, 0.169 nM and 71.1 nM, respectively.

Consider `O=C(NCc1ccn2ccnc2c1)c1ccc(-c2cnn(CC3CCCCO3)c2)s1` (stereo not drawn) [Example 247, N-(imidazo[1,2-a]pyridin-7-ylmethyl)-5-[1-(tetrahydro-2H-pyran-2-ylmethyl)-1H-pyrazol-4-yl]thiophene-2-carboxamide], for which the values for the half-inhibitory concentration (IC50) (in assay [1]; on NAMPT; in the assay on PC3 cells) were 62.7 nM, 0.275 nM and 1.34 nM, respectively.
